Series [1] is described as follows: Population PK model simulation of Compound A dosing regimens (one-compartment, first-order absorption, lag time). Further details: species or system human. The procedure:
The rationale for these doses is based on PK data from 53 patients treated in Arm A (no strong cytochrome P450 CYP3A4 inhibitor) and Arm B (with a strong CYP3A4 inhibitor) of Study Compound A which were analyzed with a preliminary population PK model. The model was a one-compartment PK model with first-order absorption (ka) and lag time (Tlag) that described the individual PK data. The data confirmed the expected effect of a strong CYP3A4 inhibitor comedication in Arm B on the drug elimination rate (k) and apparent volume of distribution (Vz/F).
The starting dose of 163 mg TID of Compound A alone was selected because it provides Cmax, Cmin, as shown in FIGS. 2A-B, and AUC0-24 approximately half that of 163 mg q12 h with a strong CYP3A4 inhibitor, as shown in FIG. 2C; the lower exposure provides a margin of safety in case CRC patients are more sensitive to the effects of Compound A than acute myeloid leukemia patients. The dose of 276 mg TID is expected to show exposure similar to that for 163 mg q12 h with a strong CYP3A inhibitor based on 3 key PK parameters (Cmax, Cmin, and AUC0-24), as shown in FIGS. 2A-C and Table 3A.

A further series relates to >125 molecular targets. Briefly: Off-target screening assays.
For a further series, the system named is dogs. The series can be described thus: GLP 28-day dog toxicology study / QTc in dogs. The series is classed as in vivo.
In a further series the test system is rats. The series can be described thus: GLP 28-day rat toxicology study. The series is classed as in vivo.

For the molecule `CCN(C(=O)c1cc(F)ccc1Oc1cncnc1N1CC2(CCN(C[C@H]3CC[C@H](NS(=O)(=O)CC)CC3)CC2)C1)C(C)C` [Compound A], the “Cmax, Cmin and AUC0-24 relative to 163 mg q12 h with a strong CYP3A4 inhibitor” value in series [1] (163 mg TID of Compound A alone) is listed as “approximately half”. The “Exposure (Cmax, Cmin, AUC0-24) compared with 163 mg q12 h with a strong CYP3A inhibitor” value in series [1] (276 mg TID without CYP3A4 inhibitor) is recorded as “similar”. Further, in the series on >125 molecular targets, the “Cross-reactivity in off-target screening” value is on record as “no cross-reactivity”. Also, the “Potential main targeted organ of toxicity: heart” value with dogs (28-day dog toxicology study) is “electrocardiogram [ECG] changes in dogs”. The “Potential main targeted organs of toxicity (other)” value in the series with dogs (28-day rat and dog toxicology studies, dog) is “liver, bone marrow, lymphoid tissues, male reproductive system, and female reproductive system”; in the series on rats (28-day rat and dog toxicology studies, rat), “liver, bone marrow, lymphoid tissues, male reproductive system, and female reproductive system”. In addition, the “QTc finding in dogs” value in the series with dogs (dogs treated with Compound A) is listed as “Prolonged QTc”. Further, the “Potential main targeted organ of toxicity: eyes” value with rats (28-day rat toxicology study) is on record as “cataracts in rats only”.
